Where “and” joins values, the source holds several entries; their conditions need not be identical. Identical values can stand only once.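 Assay format: 96-well plates, 48-hour exposure. GI50 marks 50% less growth. TGI: concentration producing complete growth inhibition.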

Test systems include CCRF-CEM leukemia; COLO 205 colon; DU-145 prostate; HT29 colon; KM12 colon; MDA-MB-231 breast; RPMI-8226 leukemia; SK-MEL-2 melanoma; SNB-75 CNS; SW-620 colon.
Assay in all cases: NCI anticancer screen, dose series, 48 h

As for `CCCCCCCCCCCCCCCCP(=O)([O-])OCC[N+](C)(C)C`, the TGI in the test on CCRF-CEM leukemia came out at 24.7 µM; in the test on COLO 205 colon it was 20.5 µM; with DU-145 prostate it was 28.3 µM; with HT29 colon, 25.5 µM; with KM12 colon, 9.33 µM; in the test with MDA-MB-231 breast, 35.2 µM. Also, the TGI is 34.2 µM with RPMI-8226 leukemia, 31.5 µM in the test with SK-MEL-2 melanoma, 29 µM in the test with SNB-75 CNS and 29.7 µM in the test on SW-620 colon.
As to `COc1ccccc1NS(=O)(=O)c1ccc2ncn(NS(=O)(=O)c3ccc(Cl)cc3)c(=O)c2c1`, the TGI with CCRF-CEM leukemia, with COLO 205 colon, in the test on DU-145 prostate, in the test with HT29 colon, in the test on KM12 colon and in the test on MDA-MB-231 breast was more than 100 µM throughout. For the same molecule, the TGI in the test with RPMI-8226 leukemia, with SK-MEL-2 melanoma, in the test with SNB-75 CNS and in the test on SW-620 colon was more than 100 µM throughout.
Turning to `CC(=O)OCC1OC(N2C(S)=C(C#N)C(c3ccco3)C(C(C)=O)=C2c2ccccc2)C(OC(C)=O)C(OC(C)=O)C1OC(C)=O` (configuration not stated), the TGI with CCRF-CEM leukemia, in the test on COLO 205 colon, in the test with DU-145 prostate, with HT29 colon, in the test with KM12 colon and in the test with MDA-MB-231 breast was more than 100 µM throughout. Also, the TGI in the test with RPMI-8226 leukemia, in the test on SK-MEL-2 melanoma, in the test on SNB-75 CNS and with SW-620 colon was more than 100 µM in each case.
In the case of `O=C(O)CC(O)(C(=O)O)C(O)C(=O)O` (configuration not stated), the TGI in the test on CCRF-CEM leukemia, in the test on COLO 205 colon, in the test on DU-145 prostate, with HT29 colon, in the test on KM12 colon and in the test on MDA-MB-231 breast was more than 1000 µM each time. The TGI with RPMI-8226 leukemia, in the test with SK-MEL-2 melanoma, in the test with SNB-75 CNS and with SW-620 colon was more than 1000 µM each time.
Take `NCCCC[C@H](N)C(=O)Nc1ccc(-c2nc3ccccc3s2)cc1Cl`: the TGI is 14.7 µM in the test with CCRF-CEM leukemia; 17.9 µM in the test with COLO 205 colon; 18 µM with DU-145 prostate; 18.1 µM in the test with HT29 colon; 7.81 µM in the test with KM12 colon; 26.6 µM in the test with MDA-MB-231 breast. For the same molecule, the TGI in the test with SK-MEL-2 melanoma is 32.7 µM; in the test with SNB-75 CNS, 26.8 µM; with SW-620 colon, 23.6 µM.
As for `CN(C)c1ccc(/C=c2/c3cc([N+](=O)[O-])ccc3n3c2cc(-c2ccccc2)[n+]3C)cc1`, the TGI with CCRF-CEM leukemia is 5.57 µM; in the test with COLO 205 colon, 1.48 µM; in the test with DU-145 prostate, 6.68 µM; in the test with HT29 colon, 6.76 µM; with KM12 colon, 2.59 µM; in the test with MDA-MB-231 breast, 2.75 µM. The TGI in the test with RPMI-8226 leukemia turned out to be 1.72 µM; with SK-MEL-2 melanoma, 1.68 µM; in the test on SNB-75 CNS, 3.79 µM; in the test with SW-620 colon, 2.75 µM.
For the molecule `COc1cc2c(cc1OCCCCCOc1cc3c(cc1OC)C(=O)N1CCC[C@H]1CN3)N=C[C@@H]1CCCN1C2=O`, the TGI is 0.592 µM in the test on CCRF-CEM leukemia; more than 100 µM in the test with COLO 205 colon; more than 100 µM with DU-145 prostate; 37.3 µM in the test on HT29 colon; 15.2 µM in the test with KM12 colon; 9.48 µM with MDA-MB-231 breast. The TGI in the test with SK-MEL-2 melanoma turned out to be 11.5 µM; with SNB-75 CNS, 95.2 µM; in the test with SW-620 colon, 23.9 µM.
On to `OCC(O)C(O)C(O)C(O)/C=N/Nc1nc(O)c(/C=C2\C=Nc3ccccc32)[nH]1` (configuration not stated), for which the TGI in the test on CCRF-CEM leukemia, in the test with COLO 205 colon, in the test with DU-145 prostate, in the test with HT29 colon, in the test on KM12 colon and in the test with MDA-MB-231 breast was more than 100 µM throughout. For the same molecule, the TGI is more than 100 µM with RPMI-8226 leukemia, 97.7 µM with SK-MEL-2 melanoma, more than 100 µM in the test on SNB-75 CNS and more than 100 µM in the test with SW-620 colon.
For `C#CCOC(=O)C(N)CCSC` (configuration not stated), the TGI in the test with CCRF-CEM leukemia, with COLO 205 colon, in the test on DU-145 prostate, in the test on HT29 colon, in the test on KM12 colon and in the test with MDA-MB-231 breast was more than 100 µM each time. In addition, the TGI in the test with RPMI-8226 leukemia, with SK-MEL-2 melanoma, in the test with SNB-75 CNS and in the test on SW-620 colon was more than 100 µM in each case.
As for `Cc1sc2nc3n(c(=O)c2c1C)N=C(c1ccc([N+](=O)[O-])cc1)CS3`, the TGI in the test with CCRF-CEM leukemia, in the test on COLO 205 colon, with DU-145 prostate, with HT29 colon, with KM12 colon and with MDA-MB-231 breast was more than 100 µM each time. For the same molecule, the TGI in the test with RPMI-8226 leukemia, in the test with SNB-75 CNS and with SW-620 colon was more than 100 µM in each case.
For the molecule `C[N+](C)(N)c1nc(N)c(C#N)c(C#N)c1C#N`, the TGI in the test with CCRF-CEM leukemia, in the test on COLO 205 colon, in the test with DU-145 prostate, with HT29 colon, in the test on MDA-MB-231 breast and with RPMI-8226 leukemia was more than 10 µM throughout. Further, the TGI in the test on SK-MEL-2 melanoma, in the test with SNB-75 CNS and in the test on SW-620 colon was more than 10 µM each time.
For `CC(=O)C1(O)Cc2c(O)c3c(c(O)c2C(OC2CC(N)C(O)C(C)O2)C1)C(=O)c1ccccc1C3=O` (configuration not stated), the GI50 in the test with CCRF-CEM leukemia is 0.00214 µM; in the test with COLO 205 colon it was 0.0227 µM; with DU-145 prostate, less than 0.0104 µM; in the test on HT29 colon, 0.0117 µM; with KM12 colon, 0.0167 µM; in the test on MDA-MB-231 breast, 0.0948 µM. For the same molecule, the GI50 with RPMI-8226 leukemia is 0.0305 µM and < 0.0131 µM; with SNB-75 CNS, 0.0293 µM; in the test with SW-620 colon it was less than 0.0114 µM. Besides, the TGI in the test on COLO 205 colon is 0.803 µM and 0.181 µM; in the test with DU-145 prostate it was 0.438 µM and 0.0587 µM; in the test on HT29 colon it was 0.432 µM and 0.234 µM; in the test on KM12 colon it was 0.713 µM and 0.227 µM; in the test with MDA-MB-231 breast it was 1.22 µM; in the test with RPMI-8226 leukemia, 0.35 µM and 0.0968 µM. Also, the TGI in the test on SNB-75 CNS is 0.594 µM and 0.103 µM; in the test on SW-620 colon, 0.597 µM and 0.262 µM.
For `C/C=C1\CC(C(=O)OCC)CCCCCCCCCCC1=O` (configuration not stated), the TGI in the test with CCRF-CEM leukemia, in the test with COLO 205 colon, in the test with DU-145 prostate, in the test with HT29 colon, in the test with KM12 colon and with MDA-MB-231 breast was more than 100 µM throughout. Moreover, the TGI with SK-MEL-2 melanoma, in the test on SNB-75 CNS and in the test on SW-620 colon was more than 100 µM in each case.

The values above are taken from PubChem BioAssay (NCI).
